Assays:
PKA and GSK-3β = test: Receptor functionality: Western blot of PKA and GSK-3β in B16-F10 melanoma cells; type: cell-based
Description: (§1) To detect the level of expression of the A3AR proteins Western blot analysis was performed. Cells were incubated in the presence and absence of IB-MECA (10 nM), MRS1523 (10 nM), Forskolin (50 nM), 8 Br cAMP (100 μM), Cycloheximide 20 μg/ml or MG 132 (20 nM) for different time periods at 37° C. Cells were then rinsed with ice-cold PBS and transferred to ice-cold lysis buffer (TNN buffer, 50 mM Tris buffer pH=7.5, 150 mM NaCl, NP 40). In the experiment examining the effect of trypsin on A3AR expression, cells were incubated with 0.5 ml of 0.25% trypsin for 5 minutes. The trypsinized cells were washed again with ice-cold PBS, harvested by centrifugation and subjected to lysis in TNN buffer. Cell debris was removed by centrifugation for 10 minutes, at 7500 xg. The supernatant was utilized for Western Blot analysis. Protein concentrations were determined using the Bio-Rad protein assay dye reagent. Equal amounts of the sample (50 μg) were separated by SDS-PAGE, using 12% polyacrylamide gels. The resolved proteins were then electroblotted onto nitrocellulose membranes (Schleicher & Schuell, Keene, NH, USA). Membranes were blocked with 1% bovine serum albumin and incubated with the desired primary antibody (dilution 1:1000) for 24 hours at 4° C. Blots were then washed and incubated with a secondary antibody for 1 hour at room temperature. Bands were recorded using BCIP/NBT color development kit (Promega, Madison, W1, USA). Data presented in the different figures are representative of at least three different experiments.
To test receptor functionality, the protein expression level of PKA and GSK-3β, which are modulated downstream to A3AR activation, was examined. Functional receptor sensitization by IB-MECA was observed after 15 and 60 minutes and was manifested by decreased PKA and increased GSK-3β levels. […] Indeed, the modulatory effect of IB-MECA on PKA and GSK-3β was reversed in the presence of the above agents (FIG. 8a, 8b and 8c).

[1] = system: A3AR, GSK-3β, cyclin D1, c-myc; test: Western blot of regulatory proteins in HCT-116 tumor lesions excised from mice; type: in vivo
Description: as §1
(§2) Colon Carcinoma: Nude/BalbC male, 10-week-old mice were used. HCT-116 Human colon carcinoma cells (1.2×10^6 cells in 100 μL PBS) were inoculated subcutaneously to the flank of the mice. Treatment was initiated when tumors reached a size of ˜150 mm^3. Each group contained 10 mice, the control group treated with vehicle only, while the test group was administered daily orally with IB-MECA (10 μg/kg).
(§3) After 32 days the mice were sacrificed, tumor lesions were excise and protein was extracted for measurements as described above. Tumor size was evaluated by measuring with a caliber width (W) and length (L) and calculated according to the above formula.

[2] = system: HCT-116 human colon carcinoma; test: HCT-116 human colon carcinoma development in mice; type: in vivo; conditions: mice inoculated with HCT-116, 10 μg/kg orally daily
Description: as §2, §3

A3AR = molecular target: T1, A3AR (Mus musculus, UniProt Q61618); test: Immunostaining and confocal microscopy of A3AR localization in B16-F10 melanoma cells; type: cell-based
T1 construct: endogenous in cells; host or cells: B16-F10 melanoma cells
T1 sequence (Q61618 1-319): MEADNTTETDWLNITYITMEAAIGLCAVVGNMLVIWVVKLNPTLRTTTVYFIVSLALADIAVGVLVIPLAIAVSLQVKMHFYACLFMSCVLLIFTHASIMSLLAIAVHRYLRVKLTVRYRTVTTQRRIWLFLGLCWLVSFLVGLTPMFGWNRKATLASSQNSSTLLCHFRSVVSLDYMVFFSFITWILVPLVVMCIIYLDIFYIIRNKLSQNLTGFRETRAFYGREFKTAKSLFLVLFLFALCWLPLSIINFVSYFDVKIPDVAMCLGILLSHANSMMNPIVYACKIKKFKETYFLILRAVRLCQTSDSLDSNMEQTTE
Description: B16-F10 melanoma cells were grown for 24 hours on cover slips coated with Ploy-L-Lysine (500 μg/ml). Cells were fixed in 4% formaldehyde in phosphate-buffered saline (PBS) for 1 hour at room temperature. The fixed cells were rinsed three times for one min with PBS. To block nonspecific interaction of the antibodies, cells were incubated for 30 minutes in 4% normal goat serum (NGS) in PBS (1% bovine serum albumin (BSA), 0.1% Triton X-100). For the single labeling experiments, cells were then incubated with the primary antibodies against A3AR at a dilution of 1:1000 in PBS (1% BSA, 1% NGS, 0.1% Triton X-100) for 24 hours at 4° C. For the double labeling experiments, antibodies against the A2B adenosine receptor (A2BR) were added at a dilution of 1:1000 to the reaction mixture. After being washed three times for 3 minutes with PBS, cells were incubated with Cy3-conjugated anti-goat IgG for the single labeling experiment, and with both, Fluorescein-conjugated anti-rabbit IgG and Cy3 for the double labeling. Both antibodies were diluted to 1:250 in PBS and incubated in the dark for 2 hours. Cells were rinsed with PBS three more times and mounted with AM 100 (Chemicon, Ca). Stained cells were visualized by Confocal Microscope (Zeiss, Axiovert 100 M, excitation at 553 and emission at 560-615 nm for Cy3, and 492 and 520 nm, respectively, for Fluorescein).
To study receptor localization, confocal laser microscopy was utilized.
To further explore the time course kinetic of A3AR internalization, B16-F10 melanoma cells were exposed for different time periods to IB-MECA and confocal microscopy analysis was carried out. FIG. 2 depicts the gradual internalization rate that occurred within a few minutes, resulting in the disappearance of the fluorescence after 6 minutes. […] This was followed by internalization/externalization after longer incubation time periods (30 and 60 minutes). To confirm the observation that the fluorescence level is decreased as a result of internalization, optical sectioning of the cells was performed (data not shown). […] To show the specificity of A3AR localization, it was compared to that of the A2B adenosine receptor. […] Upon exposure of the cells to IB-MECA, the A2BR was masked by A3AR in the cytoplasm.

time to disappearance of the A3AR fluorescence (internalization) (A3AR; B16-F10 melanoma cells exposed to IB-MECA): 6 min
A3AR fluorescence level on the cell surface (A3AR; B16-F10 melanoma cells, IB-MECA treated, after 5 minutes): marked decrease
A3AR localization, optical sectioning (A3AR; B16-F10 melanoma cells, exposure for 5 minutes): presented in the cytoplasm
Compound: CNC(=O)[C@H]1O[C@@H](n2cnc3c(NCc4cccc(I)c4)ncnc32)[C@H](O)[C@@H]1O [IB-MECA, 1-deoxy-1-[6[[(3-iodophenyl)methyl]amino]-9H-purine-9-yl]-N-methyl-β-D-ribofura-nuronaminde]
GSK-3β level (PKA and GSK-3β; after 15 and 60 minutes): increased
PKA level (PKA and GSK-3β; after 15 and 60 minutes): decreased
GSK-3β level (PKA and GSK-3β; at 30 minutes): only slightly increased
PKA level (PKA and GSK-3β; at 30 minutes): stabilized
A3AR level [1]: down-regulation
GSK-3β expression level [1]: up-regulation
c-myc level [1]: decrease
cyclin D1 level [1]: decrease
development of colon carcinoma (tumor size) [2]: markedly suppressed
A3AR localization, optical sectioning (A3AR; B16-F10 melanoma cells, after 15 and 60 minutes' exposure): seen both in the cytoplasm and on the cell surface
A3AR localization (A3AR; B16-F10 melanoma cells, prolonged exposure (15 minutes)): receptor externalization to the cell surface
